Tested on: moderate-to-severe chronic spontaneous urticaria (CSU)
Experiment: Phase 2 CSU study: itch severity score over 7 days (ISS7)
Format: in vivo, human
Conditions: 400 mg BID; for Change from Baseline in ISS7 at Week 12, LS Mean / Change from Baseline in ISS7 at Week 12, LS Mean Diff vs. placebo / Change from Baseline in ISS7 at Week 12, Mean: Omalizumab-naïve population
From the text: The study comprises a 12 week, randomized, double-blind, placebo-controlled, multi-center, dose-ranging efficacy and safety phase, followed by a 40 week open label extension (OLE) phase (see FIG. 1). The study consists of three phases and an optional OLE phase. […] Clinically, CSU is characterized by the spontaneous and recurrent appearance of pruritic hives. The proposed primary endpoints were the UAS7 at Week 12 in EU and EU reference countries and the ISS7 in the US. Regardless of where a participant was from, all assessments were the same. The UAS7 score is a composite score containing both the HSS7 and the ISS7. This allowed a global assessment of the two key components of urticaria: hives and itch. […] The UAS is a validated PRO measure. […] The daily UAS scores range from 0 to 6 point/day. […] Patients were to complete the UAS using the e-diary. […] The following secondary endpoints were to be analyzed using the same approach as for the primary endpoint: • Change from baseline in UAS7 at Week 4 • Change from baseline in UAS7 at Week 12 (for US and US reference countries) • Change from baseline in ISS7 at Week 12 (except US and US reference countries) • Change from baseline in HSS7 at Week 12

[1] = Baseline Eosinophils (10^9/L) <0.150
[2] = Baseline Eosinophils (10^9/L) <0.165 (Median)
[3] = Baseline Eosinophils (10^9/L) <0.3
[4] = Baseline Eosinophils (10^9/L) ≥0.150
[5] = Baseline Eosinophils (10^9/L) ≥0.165 (Median)
[6] = Baseline Eosinophils (10^9/L) ≥0.3
[7] = Baseline H1-antihistamines dose 1-fold
[8] = Baseline H1-antihistamines dose 2 to 4-fold standard dose
[9] = Baseline Total IgE (IU/mL) <100
[10] = Baseline Total IgE (IU/mL) <300
[11] = Baseline Total IgE (IU/mL) ≥100
[12] = Baseline Total IgE (IU/mL) ≥300
[13] = Duration of disease (years) 2-10
[14] = Duration of disease (years) >10

CC(C)(C=C(C#N)C(=O)N1CCC[C@@H](n2nc(-c3ccc(Oc4ccccc4)cc3F)c3c(N)ncnc32)C1)N1CCN(C2COC2)CC1 [rilzabrutinib, (R)-2-[3-[4-amino-3-(2-fluoro-4-phenoxy-phenyl)pyrazolo[3,4-d]pyrimidin-1-yl]piperidine-1-carbonyl]-4-methyl-4-[4-(oxetan-3-yl)piperazin-1-yl]pent-2-enenitrile]
Change from Baseline in ISS7 at Week 12, LS Mean (Age group (years) <44 (Median)): −7.05 | Change from Baseline in ISS7 at Week 12, LS Mean Diff vs. placebo (Age group (years) <44 (Median)): −2.58 | Change from Baseline in ISS7 at Week 12, Mean (Age group (years) <44 (Median)): −5.97 | Change from Baseline in ISS7 at Week 12, LS Mean (Age group (years) <65): −7.37 | Change from Baseline in ISS7 at Week 12, LS Mean Diff vs. placebo (Age group (years) <65): −1.71 | Change from Baseline in ISS7 at Week 12, Mean (Age group (years) <65): −7.17 | Change from Baseline in ISS7 at Week 12, LS Mean (Age group (years) ≥44 (Median)): −8.10 | Change from Baseline in ISS7 at Week 12, LS Mean Diff vs. placebo (Age group (years) ≥44 (Median)): −1.50 | Change from Baseline in ISS7 at Week 12, Mean (Age group (years) ≥44 (Median)): −8.62 | Change from Baseline in ISS7 at Week 12, Mean (Age group (years) ≥65): −13.00 | Change from Baseline in ISS7 at Week 12, LS Mean (Baseline BHRA BHRA+): −8.42 | Change from Baseline in ISS7 at Week 12, LS Mean Diff vs. placebo (Baseline BHRA BHRA+): −3.03 | Change from Baseline in ISS7 at Week 12, Mean (Baseline BHRA BHRA+): −9.57 | Change from Baseline in ISS7 at Week 12, LS Mean (Baseline BHRA BHRA−): −6.59 | Change from Baseline in ISS7 at Week 12, Mean (Baseline BHRA BHRA−): −6.75 | Change from Baseline in ISS7 at Week 12, LS Mean Diff vs. placebo (Baseline BMI (kg/m^2) ≥30): −0.57 | Change from Baseline in ISS7 at Week 12, LS Mean [1]: −6.93 | Change from Baseline in ISS7 at Week 12, LS Mean Diff vs. placebo [1]: −0.15 | Change from Baseline in ISS7 at Week 12, LS Mean [2]: −7.37 | Change from Baseline in ISS7 at Week 12, LS Mean Diff vs. placebo [2]: −0.86 | Change from Baseline in ISS7 at Week 12, Mean [2]: −5.92 | Change from Baseline in ISS7 at Week 12, LS Mean [3]: −7.78 | Change from Baseline in ISS7 at Week 12, LS Mean Diff vs. placebo [3]: −2.31 | Change from Baseline in ISS7 at Week 12, Mean [3]: −7.62 | Change from Baseline in ISS7 at Week 12, LS Mean [4]: −7.91 | Change from Baseline in ISS7 at Week 12, LS Mean Diff vs. placebo [4]: −3.92 | Change from Baseline in ISS7 at Week 12, LS Mean [5]: −7.62 | Change from Baseline in ISS7 at Week 12, LS Mean Diff vs. placebo [5]: −3.53 | Change from Baseline in ISS7 at Week 12, Mean [5]: −8.88 | Change from Baseline in ISS7 at Week 12, LS Mean [6]: −6.15 | Change from Baseline in ISS7 at Week 12, LS Mean Diff vs. placebo [6]: −1.29 | Change from Baseline in ISS7 at Week 12, LS Mean [7]: −8.44 | Change from Baseline in ISS7 at Week 12, LS Mean Diff vs. placebo [7]: −1.60 | Change from Baseline in ISS7 at Week 12, Mean [7]: −9.03 | Change from Baseline in ISS7 at Week 12, LS Mean [8]: −6.73 | Change from Baseline in ISS7 at Week 12, LS Mean Diff vs. placebo [8]: −3.25 | Change from Baseline in ISS7 at Week 12, Mean [8]: −6.20 | Change from Baseline in ISS7 at Week 12, LS Mean (Baseline ISS7 score <13): −5.14 | Change from Baseline in ISS7 at Week 12, LS Mean Diff vs. placebo (Baseline ISS7 score <13): −2.42 | Change from Baseline in ISS7 at Week 12, Mean (Baseline ISS7 score <13): −5.28 | Change from Baseline in ISS7 at Week 12, LS Mean (Baseline ISS7 score ≥13): −7.87 | Change from Baseline in ISS7 at Week 12, LS Mean Diff vs. placebo (Baseline ISS7 score ≥13): −2.14 | Change from Baseline in ISS7 at Week 12, Mean (Baseline ISS7 score ≥13): −8.03 | Change from Baseline in ISS7 at Week 12, LS Mean [9]: −8.29 | Change from Baseline in ISS7 at Week 12, LS Mean Diff vs. placebo [9]: −4.06 | Change from Baseline in ISS7 at Week 12, Mean [9]: −8.52 | Change from Baseline in ISS7 at Week 12, LS Mean [10]: −7.94 | Change from Baseline in ISS7 at Week 12, LS Mean Diff vs. placebo [10]: −3.43 | Change from Baseline in ISS7 at Week 12, Mean [10]: −7.93 | Change from Baseline in ISS7 at Week 12, LS Mean [11]: −6.91 | Change from Baseline in ISS7 at Week 12, LS Mean Diff vs. placebo [11]: −0.88 | Change from Baseline in ISS7 at Week 12, Mean [11]: −6.57 | Change from Baseline in ISS7 at Week 12, LS Mean [12]: −7.17 | Change from Baseline in ISS7 at Week 12, LS Mean Diff vs. placebo [12]: −0.62 | Change from Baseline in ISS7 at Week 12, Mean [12]: −6.20 | Change from Baseline in ISS7 at Week 12, LS Mean (Baseline UAS7 score <28): −5.40 | Change from Baseline in ISS7 at Week 12, LS Mean Diff vs. placebo (Baseline UAS7 score <28): −2.22 | Change from Baseline in ISS7 at Week 12, Mean (Baseline UAS7 score <28): −6.29 | Change from Baseline in ISS7 at Week 12, LS Mean (Baseline UAS7 score ≥28): −8.64 | Change from Baseline in ISS7 at Week 12, LS Mean Diff vs. placebo (Baseline UAS7 score ≥28): −2.04 | Change from Baseline in ISS7 at Week 12, Mean (Baseline UAS7 score ≥28): −8.21 | Change from Baseline in ISS7 at Week 12, LS Mean [13]: −6.89 | Change from Baseline in ISS7 at Week 12, LS Mean Diff vs. placebo [13]: 0.14 | Change from Baseline in ISS7 at Week 12, Mean [13]: −8.05 | Change from Baseline in ISS7 at Week 12, LS Mean (Duration of disease (years) <2): −8.54 | Change from Baseline in ISS7 at Week 12, LS Mean Diff vs. placebo (Duration of disease (years) <2): −4.89 | Change from Baseline in ISS7 at Week 12, Mean (Duration of disease (years) <2): −7.53 | Change from Baseline in ISS7 at Week 12, LS Mean [14]: 5.36 | Change from Baseline in ISS7 at Week 12, LS Mean Diff vs. placebo [14]: 9.04 | Change from Baseline in ISS7 at Week 12, Mean [14]: 1.67 | Change from Baseline in ISS7 at Week 12, LS Mean (Ethnicity Hispanic): −5.19 | Change from Baseline in ISS7 at Week 12, LS Mean Diff vs. placebo (Ethnicity Hispanic): 1.82 | Change from Baseline in ISS7 at Week 12, Mean (Ethnicity Hispanic): −4.42 | Change from Baseline in ISS7 at Week 12, LS Mean (Ethnicity Non-Hispanic): −8.43 | Change from Baseline in ISS7 at Week 12, LS Mean Diff vs. placebo (Ethnicity Non-Hispanic): −3.96 | Change from Baseline in ISS7 at Week 12, Mean (Ethnicity Non-Hispanic): −8.59 | Change from Baseline in ISS7 at Week 12, Mean (Gender Female): −6.99 | Change from Baseline in ISS7 at Week 12, Mean (Gender Male): −8.17 | Change from Baseline in ISS7 at Week 12, LS Mean (History of angioedema No): −7.93 | Change from Baseline in ISS7 at Week 12, LS Mean Diff vs. placebo (History of angioedema No): −2.59 | Change from Baseline in ISS7 at Week 12, LS Mean (History of angioedema Yes): −6.26 | Change from Baseline in ISS7 at Week 12, LS Mean Diff vs. placebo (History of angioedema Yes): −1.01 | Change from Baseline in ISS7 at Week 12, Mean (History of angioedema Yes): −4.04 | ISS7 at Week 12, Mean (ITT population): 7.61 | ISS7 at Week 12, Median (ITT population): 7.00 | ISS7 change from baseline at Week 12, Mean (ITT population): −8.21 | ISS7 change from baseline at Week 12, Median (ITT population): −8.00 | ISS7 change from baseline at Week 12, LS Mean (ITT population, ANCOVA): −8.06 points | ISS7 change from baseline at Week 12, LS Mean Diff vs. placebo (ITT population, ANCOVA): −1.75 | LS mean change in ISS7 from baseline (see Table 29) (ITT population, following one week of treatment): −5.23 points | Change from Baseline in ISS7 at Week 12, LS Mean (Race All the Others): −6.99
